From patent US3978129A, “Alkenyl- and alkanylamines” (A. H. Robins Company, Incorporated, priority 1972, dated 1976) come the findings set out here.

Counter-ions that a name gives are not always drawn.

The test system of this test is depressant effects of tetrabenazine. In words: Blocking the depressant effects induced in mice by intravenous tetrabenazine (modified Englehardt procedure, increased tetrabenazine dosage). The test is classed as in vivo. Conditions: Mus musculus, ip, compounds I.P. As to the method: The compounds were administered to mice intraperitoneally and the effectiveness of the compounds in blocking the depressant effects which are induced in mice by intravenous administration of 2-oxo-3-isobutyl-9,10-di-methoxy-1,2,3,4,6,7-hexahydro-11-bh-benzo[a]quinolizine (tetrabenazine was determined. The procedure used was a modification of that given by Englehardt, E. L. et al, J. Med. Chem. 11 (2) : 325(1968) wherein tetrabenazine dosage is increased over the Englehardt procedure. The ED50 of the compounds tested in blocking the depressant activity of tetrabenazine are given in Table I.
One may read the ED50 as the dose that gives a 50% effect, or the effect in half of the subjects. A high value points to weaker potency. Compound `COc1ccc(C(=CCCCl)CCN(C)C)cc1` [Example 6, 6-Chloro-N,N-dimethyl-3-(4-methoxyphenyl)-3-hexenylamine Hydrochloride] showed a median effective dose (ED50) of 28.5 mg/kg.
The figure for `CN(C)CCC(CCCCl)c1ccccc1` (centres unmarked) [Example 8, 6-Chloro-N,N-dimethyl-3-phenylhexylamine Hydrochloride] is 3.6 mg/kg.
Turning to `CN(C)CC=C(CCCBr)c1ccccc1` [Example 2, 6-Bromo-N,N-dimethyl-3-phenyl-2-hexenylamine Hydrobromide], it took a dose of 0.5 mg/kg to reach the 50% effect level (ED50).
Compound `CN(C)CCC(=CCCBr)c1ccccc1` [Example 3, 6-Bromo-N,N-dimethyl-N,N-dimethyl-3-hexenylamine Hydrobromide] yielded an ED50 of 1.9 mg/kg.
The value for `CN(C)CCCC(=CCCCl)c1ccccc1` [Example 4, 7-Chloro-N,N-dimethyl-4-phenyl-4-heptenylamine Oxalate] was 20 mg/kg; that for `CN(C)CCC(=CCCCl)c1ccccc1` [Example 1, 6-Chloro-N,N-dimethyl-3-phenyl-3-hexenylamine Hydrochloride] was 2.5 mg/kg.
The compound `CN(C)CCC=C(CCCCl)c1ccccc1` [Example 5, 7-Chloro-N,N-dimethyl-4-phenyl-3-heptenylamine Oxalate] displayed a median effective dose (ED50) of 10 mg/kg.
The figure for `CN(C)CCC(=CCCCl)c1cccc(C(F)(F)F)c1` [Example 7, 6-Chloro-N,N-dimethyl-3-(3-trifluoromethylphenyl)-3-hexenylamine Oxalate] is 15.5 mg/kg.
